Measured values taken from article PMC5355037, “The repurposed anthelmintic mebendazole in combination with trametinib suppresses refractory NRAS^Q61K melanoma” (Oncotarget, 2017).
Each block holds one compound with its values, some of them ahead of it.

Key:
[1] = system: BAK melanoma cells xenografted into athymic mice; experiment: mouse xenografting, tumor growth; format: in vivo; settings: gavage; for tumor growth (in words): trametinib 0.1 or 3 mg/kg/qd, alone or combined
Procedure: All animal experiments were performed in accordance with the guidelines and approval of Georgetown University Animal Care and Use Committee. Athymic 6-week old male mice (Taconic) were acclimated to the Division of Comparative Medicine at Georgetown University a week prior to xenografting. 3×10^6 melanoma cells were resuspended in Matrigel and injected subcutaneously into the hind flanks of athymic mice using a 22-gauge needle. […] Drugs were administered by oral gavage. Each testing group contained three to five mice in each of four experiments. Each tumor from each treatment group was measured on indicated days, and all tumor sizes were then normalized to their size at day 0 of drug treatment. All data from all four experiments was then combined for statistical analysis, to compare every mouse from each treatment group. […] The results were expressed as the mean (±SD) of tumor volume in each group. After five weeks, mice were euthanized; tumors extracts were derived for immunoblot analysis. […] This yields a similar constant to that calculated by Mosteller for humans: BSA (m^2) = [[…] (kg)]*60 [36]. […] For high dose trametinib, this is equivalent to 14.4 mg/person/day. […] By comparison, patient doses range from 100 mg one time (pinworms) to 200 mg/kg per day for 12 weeks ([…] disease in children) including doses up to 6 g per day. […] The results shown are based on a single experiment in triplicate, and repeated in three independent experiments with essentially the same results. […] For tumor sizes, the rate-based T/C (tumor/control) test of significance was used as described, using the author's template. The results are representative of 3 independent experiments with reproducible results. For determining synergism, the combination index (τ) was calculated from single dose-response curves and combination experiments as τ = xA/XA+xB/XB, in which, for a given cytotoxic effect, xA and xB are the concentrations of drugs A and B in the combination, and XA and XB are the concentrations of drugs A and B that achieve the same cytotoxic effect when given alone.

pMEK1/2 S217/221 = experiment: immunoblot analysis of BAK cells; format: cell-based, human; settings: 100 nM, combination within 30 min
Procedure: (§1) SDS-PAGE and transfer of separated proteins to nitrocellulose membranes were performed according to standard procedures. Membranes were stained with Ponceau S (0.1%) to verify equal loading and transfer of proteins, and then incubated with antibodies specific for pERK1/2 T202/Y204, pMEK1/2 S217/221, pBAD S-112, total BAD, total ERK1/2, total MEK1/2, BCL2 (Santa Cruz Biotech), BCLXL (Santa Cruz Biotech), cleaved PARP (Cell Signaling), or GAPDH (Abcam; loading control). Immune complexes were detected by incubation with appropriate horseradish peroxidase-conjugated antibodies to mouse or rabbit IgG (1:3000) and enhanced chemiluminescence (Pierce, Rockford, IL).

[2] = system: phosphorylation of ERK1/2 (T202/Y204); experiment: immunoblot analysis of BAK cells; format: cell-based, human; settings: 100 nM, combination undetectable by 30 min
Procedure: as §1

[3] = system: BAK and BUL melanoma cells; experiment: apoptosis (fluorometric caspase-3 activity, sub-G1) and cell cycle assays; format: cell-based, human; settings: 100 nM, all time points
From the text: Cells were collected, fixed in ethanol, stained with propidium iodide (PI) to determine DNA content, and analyzed by flow cytometry (FACStar PLus; BD BioSciences, San Jose, CA).
Cytosolic extracts, derived from pooled floating and attached cells, were subjected to fluorometric caspase-3 activity assays using fluorescent tetrapeptide substrate specific for caspases-3 (Ac-DEVD-aminomethylcoumarin (AMC, Enzo Life Sciences, Ann Arbor, MI) as previously described. Free AMC, generated as a result of cleavage of the aspartate-AMC bond, was monitored over 30 min with a Wallac Victor^3 fluorometer (Perkin-Elmer, Waltham, MA) at excitation and emission wavelengths of 360 and 460 nm, respectively. The emission from each sample was plotted against time, and linear regression analysis of the initial velocity (slope) for each curve yielded the activity.

[4] = system: MEK1/2 and ERK1/2 phosphorylation; experiment: immunoblot analysis of tumor xenograft extracts; format: in vivo, mice; settings: tumors collected at termination; combination = HDT+MBZ
Procedure: All animal experiments were performed in accordance with the guidelines and approval of Georgetown University Animal Care and Use Committee. Athymic 6-week old male mice (Taconic) were acclimated to the Division of Comparative Medicine at Georgetown University a week prior to xenografting. 3×10^6 melanoma cells were resuspended in Matrigel and injected subcutaneously into the hind flanks of athymic mice using a 22-gauge needle. […] Drugs were administered by oral gavage. Each testing group contained three to five mice in each of four experiments. Each tumor from each treatment group was measured on indicated days, and all tumor sizes were then normalized to their size at day 0 of drug treatment. All data from all four experiments was then combined for statistical analysis, to compare every mouse from each treatment group. […] The results were expressed as the mean (±SD) of tumor volume in each group. After five weeks, mice were euthanized; tumors extracts were derived for immunoblot analysis. SDS-PAGE and transfer of separated proteins to nitrocellulose membranes were performed according to standard procedures. […] Immune complexes were detected by incubation with appropriate horseradish peroxidase-conjugated antibodies to mouse or rabbit IgG (1:3000) and enhanced chemiluminescence (Pierce, Rockford, IL).

[5] = system: BAK, BUL and STU melanoma cells; experiment: XTT cell viability assay, statements for all three lines; format: cell-based, human; settings: 72 h; for concentration at which significant growth inhibition was observed: 2-way ANOVA; for cytotoxic activity as single agent (in words): all three cell lines
Procedure: MBZ, dabrafenib, and trametinib were purchased from Sigma-Aldrich and ActiveBiochem, respectively. 5 × 10^3 viable cells per well were plated in 96-well dishes and allowed to recover for 12 h prior to drug treatment. Cells in triplicate wells were treated for up to 72 h (based on initial time course experiments showing maximal effects at that time point) with different concentrations of trametinib, dabrafenib, or MBZ alone, or a combination of MBZ and trametinib. Negative controls were exposed to vehicle DMSO in the same volumes. Cell viability was assessed by an XTT assay, according to a manufacturer's specifications (Biotium Inc). Reduced XTT was measured by absorbance at 490 nm on a PerkinElmer Victor3 plate reader. Cells exposed to detergent served as a positive control.
The results shown are based on a single experiment in triplicate, and repeated in three independent experiments with essentially the same results. Data from triplicates of treatment groups were compared using Student's t-test or 2-way ANOVA (multiple comparisons) for significance, and p values of < 0.05 were considered statistically significant. For tumor sizes, the rate-based T/C (tumor/control) test of significance was used as described, using the author's template. The results are representative of 3 independent experiments with reproducible results. For determining synergism, the combination index (τ) was calculated from single dose-response curves and combination experiments as τ = xA/XA+xB/XB, in which, for a given cytotoxic effect, xA and xB are the concentrations of drugs A and B in the combination, and XA and XB are the concentrations of drugs A and B that achieve the same cytotoxic effect when given alone. A τ value of 1 indicates additivity, τ less than 1 indicates synergy, and τ greater than 1 indicates antagonism.

roundworm tubulin = target: roundworm tubulin; parameters: method as in PMID 7388055; settings: nematode and cestode parasite tubulin; read-out: apparent binding affinity for tubulin; cited from earlier work
PDGFRB = system: PDGFRB; parameters: method as in PMID 26234515, PMID 22780961, PMID 24135855; settings: cited from earlier work
MEK2 = MEK2 (Homo sapiens, UniProt P36507); experiment: in vitro kinase assay, percent control; format: binding; settings: Kinase Target MEK2
BRAF = BRAF (Homo sapiens, UniProt P15056); experiment: in vitro kinase assay, percent control and binding affinity
VEGFR2 = VEGFR2 (Homo sapiens, UniProt P35968); experiment: as above; settings: Kinase Target VEGFR2
[6] = parameters: method as in PMID 7094986; settings: chronic oral MBZ 10 mg/kg/day, cited from earlier work
C-RAF = C-RAF (Homo sapiens, UniProt P04049); experiment: in vitro kinase assay, percent control; format: binding; settings: Kinase Target C-RAF
human tubulin = target: human tubulin; parameters: method as in PMID 7388055; settings: much lower than for parasite tubulin; cited from earlier work
MEK1 = MEK1 (Homo sapiens, UniProt Q02750); experiment: in vitro kinase assay, percent control; format: binding; settings: Kinase Target MEK1
BRAF (V600E) = BRAF (V600E) (Homo sapiens, UniProt P15056, V600E); experiment: in vitro kinase assay, percent control and binding affinity; settings: Kinase Target BRAF (V600E)
VEGFR-2 = system: VEGFR-2; parameters: method as in PMID 26234515, PMID 22780961, PMID 24135855; settings: cited from earlier work
PDGFRA = system: PDGFRA; parameters: method as in PMID 26234515, PMID 22780961, PMID 24135855; settings: cited from earlier work

BRAF (V600E), sequence (P15056 whole entry V600E): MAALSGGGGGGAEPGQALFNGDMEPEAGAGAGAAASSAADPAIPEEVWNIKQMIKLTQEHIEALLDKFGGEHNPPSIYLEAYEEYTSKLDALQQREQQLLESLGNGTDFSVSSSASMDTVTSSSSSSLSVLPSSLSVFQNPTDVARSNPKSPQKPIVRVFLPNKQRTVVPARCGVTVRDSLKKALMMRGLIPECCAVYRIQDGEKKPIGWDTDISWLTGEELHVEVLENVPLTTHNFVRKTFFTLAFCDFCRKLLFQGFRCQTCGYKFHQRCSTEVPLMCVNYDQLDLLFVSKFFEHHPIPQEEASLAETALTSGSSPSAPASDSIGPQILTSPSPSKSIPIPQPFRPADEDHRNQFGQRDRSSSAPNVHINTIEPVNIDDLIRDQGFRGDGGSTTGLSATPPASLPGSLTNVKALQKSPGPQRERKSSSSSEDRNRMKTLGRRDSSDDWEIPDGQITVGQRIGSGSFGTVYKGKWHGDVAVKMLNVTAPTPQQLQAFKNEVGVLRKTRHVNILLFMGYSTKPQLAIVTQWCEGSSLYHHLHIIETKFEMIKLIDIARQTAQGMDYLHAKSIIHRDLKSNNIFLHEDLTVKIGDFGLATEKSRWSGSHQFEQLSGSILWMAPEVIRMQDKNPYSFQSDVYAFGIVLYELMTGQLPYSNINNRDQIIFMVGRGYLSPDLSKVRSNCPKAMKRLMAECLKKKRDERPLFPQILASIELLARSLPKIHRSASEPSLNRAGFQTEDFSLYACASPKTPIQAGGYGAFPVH
BRAF, sequence (P15056 whole entry): as the sequence (P15056 whole entry V600E) above, with E600V counted along it
MEK1, sequence (Q02750 whole entry): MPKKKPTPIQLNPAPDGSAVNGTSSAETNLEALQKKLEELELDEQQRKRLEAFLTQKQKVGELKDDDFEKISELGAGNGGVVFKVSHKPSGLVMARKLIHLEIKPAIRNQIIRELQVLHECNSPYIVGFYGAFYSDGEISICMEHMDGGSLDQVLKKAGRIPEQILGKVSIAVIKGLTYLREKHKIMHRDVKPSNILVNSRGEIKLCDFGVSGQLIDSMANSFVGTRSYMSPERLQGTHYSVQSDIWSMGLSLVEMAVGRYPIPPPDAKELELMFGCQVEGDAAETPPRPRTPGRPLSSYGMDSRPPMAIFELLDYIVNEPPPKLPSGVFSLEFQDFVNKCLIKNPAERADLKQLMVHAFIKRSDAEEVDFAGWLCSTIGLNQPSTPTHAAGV
C-RAF, sequence (P04049 whole entry): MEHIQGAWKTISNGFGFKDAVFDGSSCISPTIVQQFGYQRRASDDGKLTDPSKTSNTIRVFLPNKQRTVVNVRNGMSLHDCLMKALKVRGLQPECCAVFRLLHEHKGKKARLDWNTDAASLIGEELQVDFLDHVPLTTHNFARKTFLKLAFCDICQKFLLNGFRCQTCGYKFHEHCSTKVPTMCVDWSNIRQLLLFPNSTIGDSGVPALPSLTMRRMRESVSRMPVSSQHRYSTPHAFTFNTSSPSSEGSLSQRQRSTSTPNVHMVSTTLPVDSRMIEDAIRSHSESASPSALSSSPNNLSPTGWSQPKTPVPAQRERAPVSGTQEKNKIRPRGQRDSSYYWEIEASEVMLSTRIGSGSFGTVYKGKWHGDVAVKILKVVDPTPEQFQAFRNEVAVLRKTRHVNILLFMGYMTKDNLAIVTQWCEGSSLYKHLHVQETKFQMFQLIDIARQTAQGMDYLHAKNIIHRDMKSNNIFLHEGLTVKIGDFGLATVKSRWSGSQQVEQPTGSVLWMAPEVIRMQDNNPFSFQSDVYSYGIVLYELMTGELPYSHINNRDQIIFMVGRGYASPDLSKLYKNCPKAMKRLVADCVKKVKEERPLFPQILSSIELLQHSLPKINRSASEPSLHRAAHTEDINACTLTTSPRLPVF
MEK2, sequence (P36507 whole entry): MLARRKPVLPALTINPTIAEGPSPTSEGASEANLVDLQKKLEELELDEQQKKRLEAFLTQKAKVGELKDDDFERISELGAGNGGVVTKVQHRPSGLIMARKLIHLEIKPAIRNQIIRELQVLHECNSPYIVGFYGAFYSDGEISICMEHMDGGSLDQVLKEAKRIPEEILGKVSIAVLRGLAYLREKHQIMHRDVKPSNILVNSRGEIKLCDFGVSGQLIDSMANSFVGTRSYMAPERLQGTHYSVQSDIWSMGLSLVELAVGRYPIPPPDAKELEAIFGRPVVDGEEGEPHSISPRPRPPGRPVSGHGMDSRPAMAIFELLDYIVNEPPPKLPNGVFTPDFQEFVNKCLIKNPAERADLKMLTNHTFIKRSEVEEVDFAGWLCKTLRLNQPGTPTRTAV
VEGFR2, sequence (P35968 20-1356): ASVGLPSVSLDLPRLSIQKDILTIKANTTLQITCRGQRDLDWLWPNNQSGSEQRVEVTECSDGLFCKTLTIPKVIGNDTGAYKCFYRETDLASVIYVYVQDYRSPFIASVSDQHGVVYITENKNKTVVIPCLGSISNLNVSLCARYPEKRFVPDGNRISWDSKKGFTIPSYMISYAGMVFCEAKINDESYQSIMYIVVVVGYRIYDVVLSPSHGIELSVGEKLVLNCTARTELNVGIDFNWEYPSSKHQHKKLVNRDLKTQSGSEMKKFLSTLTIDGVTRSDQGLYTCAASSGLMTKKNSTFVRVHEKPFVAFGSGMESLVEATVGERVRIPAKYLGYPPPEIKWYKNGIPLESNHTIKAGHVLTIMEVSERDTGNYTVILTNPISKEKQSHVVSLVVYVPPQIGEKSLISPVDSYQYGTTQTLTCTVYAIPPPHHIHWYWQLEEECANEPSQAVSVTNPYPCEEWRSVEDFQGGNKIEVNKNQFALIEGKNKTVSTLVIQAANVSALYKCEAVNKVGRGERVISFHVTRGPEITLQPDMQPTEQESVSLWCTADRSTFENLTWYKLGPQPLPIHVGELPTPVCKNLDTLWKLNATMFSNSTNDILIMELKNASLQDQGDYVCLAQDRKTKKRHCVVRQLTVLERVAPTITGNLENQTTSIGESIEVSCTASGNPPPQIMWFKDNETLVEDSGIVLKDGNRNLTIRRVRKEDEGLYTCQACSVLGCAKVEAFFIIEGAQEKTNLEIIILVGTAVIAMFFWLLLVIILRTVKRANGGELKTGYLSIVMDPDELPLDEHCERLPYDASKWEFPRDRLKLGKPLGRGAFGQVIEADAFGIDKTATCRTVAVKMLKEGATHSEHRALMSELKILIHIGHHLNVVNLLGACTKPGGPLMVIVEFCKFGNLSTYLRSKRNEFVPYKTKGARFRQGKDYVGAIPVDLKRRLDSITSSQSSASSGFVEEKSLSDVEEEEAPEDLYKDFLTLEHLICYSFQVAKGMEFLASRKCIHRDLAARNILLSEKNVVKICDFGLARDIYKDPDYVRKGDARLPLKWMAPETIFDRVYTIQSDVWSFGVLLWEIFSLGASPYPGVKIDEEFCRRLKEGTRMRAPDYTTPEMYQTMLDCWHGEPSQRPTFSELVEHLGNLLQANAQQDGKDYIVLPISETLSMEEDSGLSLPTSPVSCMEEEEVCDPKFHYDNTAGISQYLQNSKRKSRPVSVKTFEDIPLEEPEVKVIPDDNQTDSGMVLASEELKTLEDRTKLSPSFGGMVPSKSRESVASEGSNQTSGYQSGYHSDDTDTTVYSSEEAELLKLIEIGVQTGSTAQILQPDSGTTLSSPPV

SMILES: CC(=O)Nc1cccc(-n2c(=O)n(C3CC3)c(=O)c3c(Nc4ccc(I)cc4F)n(C)c(=O)c(C)c32)c1 [trametinib]
Rate-based T/C ([1]; HDT vs Vehicle, high dose trametinib 3 mg/kg/qd): 0.73
Rate-based T/C ([1]; LDT vs Vehicle, low dose trametinib 0.1 mg/kg/qd): 0.93
tumor growth (in words) ([1]; MBZ 40 mg/kg/qad): did not show any significant tumor-suppressive effects
pMEK1/2 S217/221 activating phosphorylation (in words) (pMEK1/2 S217/221): not inhibited
activating phosphorylation of ERK1/2 (T202/Y204) (in words) [2]: diminished
percentage of cells in S phase (in words) [3]: decreased
MEK1/2 and ERK1/2 phosphorylation in tumors (in words) [4]: ability to suppress
concentration at which significant growth inhibition was observed [5]: ≥ 1 nM

SMILES: CC(C)(C)c1nc(-c2cccc(NS(=O)(=O)c3c(F)cccc3F)c2F)c(-c2ccnc(N)n2)s1 [dabrafenib]
concentration at which significant growth inhibition was observed [5]: ≥ 1000 nM
cytotoxic activity as single agent (in words) [5]: resistance to dabrafenib except at the highest doses tested

remaining activity at 10 µM (MEK2): 12%
remaining activity at 10 µM (BRAF; 10 μM, Kinase Target BRAF): 7.8%
Kd (BRAF; Kinase Target BRAF (BRAF^WT)): 230 nM
remaining activity at 10 µM (VEGFR2): 20%
remaining activity at 10 µM (C-RAF): 23%
remaining activity at 10 µM (MEK1): 16%
remaining activity at 10 µM (BRAF (V600E); 10 μM): 3.2%
Kd (BRAF (V600E)): 210 nM
SMILES: COC(=O)Nc1nc2ccc(C(=O)c3ccccc3)cc2[nH]1 [MBZ, methyl N-[6-(benzoyl)-1H-benzimidazol-2-yl] carbamate]
Kd (roundworm tubulin): 19 nM
concentration at which MBZ inhibits PDGFRB (PDGFRB): 660 nM
Rate-based T/C ([1]; MBZ vs Vehicle, MBZ 40 mg/kg/qad): 1.04
tumor growth (in words) ([1]; MBZ 40 mg/kg/qad): did not work as a monotherapy
pMEK1/2 S217/221 activating phosphorylation (in words) (pMEK1/2 S217/221): not inhibited
activating phosphorylation of ERK1/2 (T202/Y204) (in words) [2]: diminished
peak plasma level, variability between patients [6]: 0.34 to 1.69 µM
mean peak plasma level ([6]; patients): 470 nM
MEK1/2 and ERK1/2 phosphorylation in tumors (in words) [4]: ability to suppress
affinity for human tubulin (human tubulin): µM range
concentration at which MBZ inhibits VEGFR-2 (VEGFR-2): 3.6 µM
concentration at which significant growth inhibition was observed [5]: ≥ 10 nM
cytotoxic activity as single agent (in words) [5]: weak cytotoxic activity
concentration at which MBZ inhibits PDGFRA (PDGFRA): 820 nM
